# Measured values taken from publication PMC10751773 (JACS Au, 2023).
# Columns and labels:
# piscidin 1 (P1) = piscidin 1 (P1) (Morone saxatilis, UniProt Q8UUG0); experiment: circular dichroism titration at […] nm, one-site two-state fit; type: binding
# piscidin 3 (P3) = piscidin 3 (P3) (Morone chrysops x Morone saxatilis, UniProt P0C006); experiment: as above; type: binding
# Sequence of piscidin 3 (P3) (P0C006 whole entry): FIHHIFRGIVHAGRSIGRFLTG
# Sequence of piscidin 1 (P1) (Q8UUG0 23-44): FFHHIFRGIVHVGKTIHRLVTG
structure (smiles),measurement,setting,value
CCCCCCOC(=O)CCCCCCC/C=C\CCCCCC[C@H](C)O[C@@H]1O[C@H](CO)[C@@H](O)[C@H](O)[C@H]1O[C@@H]1O[C@H](CO)[C@@H](O)[C@H](O)[C@H]1O [SL-HE],Kd,piscidin 1 (P1),206 ± 5 µM
same,Kd,piscidin 3 (P3),391.5 ± 1.5 µM
